Assay results as given in article PMC4917206, “Chemical Modification of Influenza CD8+ T-Cell Epitopes Enhances Their Immunogenicity Regardless of Immunodominance” (PLoS ONE, 2016).

Tests used:
[1] = tested on: splenocytes of WT-vaccinated HLA-A2 tg mice; format: cell-based, mouse; parameters: key to response compared with WT peptide control, mouse splenocytes: *: Lower response than WT peptide
[2] = tested on: CD8+ T cells of HLA-A2+ human donors; format: cell-based
HLA-A*0201 = target: T1, HLA-A*0201 (Homo sapiens, UniProt P04439, D140Y/D185E/D98H/E176V/E277Q/G131W/G231S/I119V/I121R/I166T/I218V/L300P/L318F/N151K/N90K/P208A/P217A/Q86G/Q94H/R138H/R169H/T345S); format: binding
T1 construct: Soluble MHC was dissolved in PBS containing 0.5 mg/ml bovine γ-globulin; made in house

HLA-A2 transgenic mice = details: mouse, in vivo

Substance	Mouse splenocytes (ex vivo assay), Average [1]	DC model: IFN-γ-positive CD8+ T cells, Average [2]	FP binding score, percentage inhibition of tracer peptide binding, 4h (HLA-A*0201)	FP binding score, percentage inhibition of tracer peptide binding, 24h (HLA-A*0201)	rank by T cell activation, mouse splenocytes [1]	rank by T cell activation, DC model [2]	T cell (IFN-γ) response of vaccinated HLA-A2 tg mice, restimulation not specified or both (HLA-A2 transgenic mice)	IFN-γ ELISpot response after restimulation with WT peptide (HLA-A2 transgenic mice; sc)	response compared with WT peptide control, mouse splenocytes [1]
[THR-BZL]MLSTVLGV [N176]	355	0.03	73%	70%					
FMYSDFHF[CHA] [F49]	60	0.18	88%	86%	Lower 3	Upper 3			
NM[2-AOC]STVLGV [N41]	5	0.08	78%	73%		Upper 3			
[am-phg][NVA]YSDFHFI [F193]			85%	81%			lowest homologous and heterologous responses	only showed higher responses than WT peptide at a vaccination dose of 25 nmol	
[4-FPHE]MYSDFHFI [F105]	62	0.08	86%	78%					
[CSME][2-AOC]LSTVLGV [N169]	366	0.09	89%	87%		Upper 3			
[BCA][2-AOC]YSDFHFI [F112]	86		92%	91%					
[2-AOC]MYSDFHFI [F95]	90	0.12	82%	80%					
[THR-BZL]MYSDFHFI [F142]	79	0.08	80%	77%					
[am-phg]MLSTVLG[2-AOC] [N11]	3	0.03	90%	88%	Lower 3	Lower 3			
[SOME]MLSTVLGV [N61]	348		62%	54%					
FMYSDFHF[CpALA] [F52]	79	0.13	81%	78%					
GILGFV[BUTGLY]TL [G20]	36	0.07	82%	79%		Lower 3			
[NVA]MLSTVLG[2-AOC] [N15]	3	0.07	71%	65%	Lower 3				
[4-FPHE][2-AOC]LSTVLGV [N95]	3	0.07	92%	90%					
FMYSDFHF[HPG] [F63]	83	0.08	81%	78%					
F[2-AOC]YSDFHFI [F143]	92		93%	91%	Upper 3				F143 ^*
[3-PYRA]ILGFVFT[2-AOC] [G29]	39	0.12	44%	38%					
